# Assay results published in US6743419B1, “Method of reducing hair growth employing sulfhydryl active compounds” (The Gillette Company, priority 1992, dated 2004).
# What was measured:
# [1] = Percent reduction in hair shaft cysteine (amino acid analysis of hamster flank organ hairs); assay type: in vivo; design: concentration or dose not given beside the values
# [2] = system: hair growth; assay: Inhibition of hair growth (hair mass, treated vs untreated site); assay type: in vivo, hamster
# [3] = Formation of cysteine-mixed disulfide in vitro (incubation with cystine or cysteine, HPLC); details: pH 7.4, 37° C.
# [4] = Reduction of cystine (generation of cysteine on incubation with cystine, HPLC); details: 37 C, pH 7.4
# [5] = Formation of cysteine-mixed disulfide in hair shafts after topical treatment; assay type: in vivo, Golden Syrian hamsters; details: thirteen topical treatments over 18 days, flank organ
compound,measurement,setting,value
5′-Deoxy-5′-methylthioadenosine,Percent reduction in hair shaft cysteine,[1]; hamster flank organ hairs,11%
same,Hair Mass Percent Reduction,"[2]; Dose 10%, Vehicle A, topical",57 ± 6%
same,Hair Mass Treated,"[2]; Dose 10%, Vehicle A, topical",1.25 ± 0.17 mg
"O=C(O)CCCCC1CCSS1 (racemic) [DL-α-Lipoic acid (reduced form), DL-α-Lipoic acid]",Hair Mass Percent Reduction,"[2]; Dose 5%, Vehicle B, topical",16 ± 5%
same,Hair Mass Treated,"[2]; Dose 5%, Vehicle B, topical",2.67 ± 0.26 mg
same,Hair Mass Percent Reduction,"[2]; Dose 15%, Vehicle A, topical",56 ± 6%
same,Hair Mass Treated,"[2]; Dose 15%, Vehicle A, topical",0.74 ± 0.09 mg
"O=S(=O)(O)CC(S)CS (stereo not shown) [2,3,-Dimercapto-1-propanesulfonic acid]",Percent reduction in hair shaft cysteine,[1]; hamster flank organ hairs,40%
same,Formation of Cysteine mixed disulfide in-vitro,[3],YES
same,Hair Mass Percent Reduction,"[2]; Dose 20%, Vehicle A, topical",79 ± 3%
same,Hair Mass Treated,"[2]; Dose 20%, Vehicle A, topical",0.64 ± 0.08 mg
same,Reduction of Cystine,[4],YES
"NCCS [2-Mercaptoethylamine (Cysteamine), 2-Mercaptoethylamine, reference compound]",Formation of Cysteine mixed disulfide in hair shaft,[5],YES
same,Percent reduction in hair shaft cysteine,[1]; hamster flank organ hairs,50%
same,Formation of Cysteine mixed disulfide in-vitro,[3],YES
same,Hair Mass Percent Reduction,"[2]; Dose 20%, Vehicle A, topical",86 ± 3%
same,Hair Mass Treated,"[2]; Dose 20%, Vehicle A, topical",0.30 ± 0.09 mg
same,Reduction of Cystine,[4],YES
"CCCCCCCCCCCCOC(=O)CCSCCC(=O)OCCCCCCCCCCCC [3,3′-Thiodipropionic acid dilauryl ester]",Hair Mass Percent Reduction,"[2]; Dose 5%, Vehicle D, topical",30 ± 7%
same,Hair Mass Treated,"[2]; Dose 5%, Vehicle D, topical",1.70 ± 0.21 mg
same,Hair Mass Percent Reduction,"[2]; Dose 20%, Vehicle D, topical",50 ± 4%
same,Hair Mass Treated,"[2]; Dose 20%, Vehicle D, topical",1.07 ± 0.10 mg
"O=C(O)CCSCCC(=O)O [3,3′-Thiodipropionic acid]",Hair Mass Percent Reduction,"[2]; Dose 20%, Vehicle A, topical",73 ± 4%
same,Hair Mass Treated,"[2]; Dose 20%, Vehicle A, topical",0.76 ± 0.12 mg
CSCCCN [3-(Methylthio)-propylamine],Hair Mass Percent Reduction,"[2]; Dose 2%, Vehicle A, topical",22 ± 13%
same,Hair Mass Treated,"[2]; Dose 2%, Vehicle A, topical",0.97 ± 0.13 mg
O=C(O)CCCSSCCCC(=O)O [3-Carboxypropyl disulfide],Hair Mass Percent Reduction,"[2]; Dose 15%, Vehicle A, topical",74 ± 4%
same,Hair Mass Treated,"[2]; Dose 15%, Vehicle A, topical",0.70 ± 0.14 mg
C=CCSCC=C [Allyl sulfide],Hair Mass Percent Reduction,"[2]; Dose 20%, Vehicle B, topical",17 ± 10%
same,Hair Mass Treated,"[2]; Dose 20%, Vehicle B, topical",1.74 ± 0.16 mg
"C[C@H](CS)C(=O)N1CCC[C@H]1C(=O)O [Captopril, reference compound]",Percent reduction in hair shaft cysteine,[1]; hamster flank organ hairs,26%
same,Formation of Cysteine mixed disulfide in-vitro,[3],YES
same,Hair Mass Percent Reduction,"[2]; Dose 10%, Vehicle A, topical",57 ± 5%
same,Hair Mass Treated,"[2]; Dose 10%, Vehicle A, topical",1.49 ± 0.20 mg
same,Reduction of Cystine,[4],YES
N[C@@H](CS)C(=O)NCC(=O)O [Cystenyl-glycine],Hair Mass Percent Reduction,"[2]; Dose 15%, Vehicle A, topical",55 ± 8%
same,Hair Mass Treated,"[2]; Dose 15%, Vehicle A, topical",0.93 ± 0.18 mg
same,Reduction of Cystine,[4],YES
N[C@H](CS)C(=O)O [D-Cysteine],Hair Mass Percent Reduction,"[2]; Dose 10%, Vehicle A, topical",60 ± 3%
same,Hair Mass Treated,"[2]; Dose 10%, Vehicle A, topical",1.20 ± 0.17 mg
CC(C)(SSC(C)(C)[C@@H](N)C(=O)O)[C@@H](N)C(=O)O [D-Penicillamine disulfide],Hair Mass Percent Reduction,"[2]; Dose 15%, Vehicle A, topical",55 ± 4%
same,Hair Mass Treated,"[2]; Dose 15%, Vehicle A, topical",1.09 ± 0.23 mg
"CC(C)(S)[C@@H](N)C(=O)O [D-Penicillamine, reference compound]",Formation of Cysteine mixed disulfide in hair shaft,[5],YES
same,Percent reduction in hair shaft cysteine,[1]; hamster flank organ hairs,50%
same,Formation of Cysteine mixed disulfide in-vitro,[3],YES
same,Hair Mass Percent Reduction,"[2]; Dose 15%, Vehicle A, topical",65 ± 5%
same,Hair Mass Treated,"[2]; Dose 15%, Vehicle A, topical",0.57 ± 0.07 mg
CCN(CC)C(=S)S [Diethyldithiocarbamic acid],Percent reduction in hair shaft cysteine,[1]; hamster flank organ hairs,18%
same,Hair Mass Percent Reduction,"[2]; Dose 15%, Vehicle A, topical",68 ± 7%
same,Hair Mass Treated,"[2]; Dose 15%, Vehicle A, topical",0.65 ± 0.09 mg
O=S(=O)(O)CCO [Isethionic acid],Hair Mass Percent Reduction,"[2]; Dose 15%, Vehicle A, topical",50 ± 7%
same,Hair Mass Treated,"[2]; Dose 15%, Vehicle A, topical",1.45 ± 0.22 mg
CCOC(=O)[C@@H](N)CS [L-Cysteine ethyl ester],Hair Mass Percent Reduction,"[2]; Dose 20%, Vehicle A, topical",82 ± 3%
same,Hair Mass Treated,"[2]; Dose 20%, Vehicle A, topical",0.49 ± 0.08 mg
COC(=O)[C@@H](N)CS [L-Cysteine methyl ester],Hair Mass Percent Reduction,"[2]; Dose 20%, Vehicle A, topical",86 ± 3%
same,Hair Mass Treated,"[2]; Dose 20%, Vehicle A, topical",0.28 ± 0.07 mg
"CC(=O)N[C@@H](CS)C(=O)O [N-Acetyl-L-Cysteine, reference compound]",Hair Mass Percent Reduction,"[2]; Dose 15%, Vehicle A, topical",80 ± 4%
same,Hair Mass Treated,"[2]; Dose 15%, Vehicle A, topical",0.39 ± 0.07 mg
NCCSC[C@H](N)C(=O)O [S-2-Aminoethyl-L-cysteine],Hair Mass Percent Reduction,"[2]; Dose 20%, Vehicle A, topical",50 ± 11%
same,Hair Mass Treated,"[2]; Dose 20%, Vehicle A, topical",0.99 ± 0.20 mg
"O=C(O)c1cc(/N=N/c2ccc(S(=O)(=O)Nc3ccccn3)cc2)ccc1O [Sulfasalazine, reference compound]",Percent reduction in hair shaft cysteine,[1]; hamster flank organ hairs,(−2%)
same,Hair Mass Percent Reduction,"[2]; Dose 20%, Vehicle C, topical",61 ± 6%
same,Hair Mass Treated,"[2]; Dose 20%, Vehicle C, topical",0.88 ± 0.14 mg
O=C(O)c1ccccc1S [Thiosalicylic acid],Percent reduction in hair shaft cysteine,"[1]; hamster, in vivo",14%
same,Hair Mass Percent Reduction,"[2]; hamster, in vivo",89 ± 2%
same,Hair Mass Treated,"[2]; hamster, in vivo",0.18 ± 0.04 mg
"O=C(O)[C@@H](S)[C@@H](S)C(=O)O [meso-2,3,-Dimercaptosuccinic acid]",Percent reduction in hair shaft cysteine,[1]; hamster flank organ hairs,22%
same,Hair Mass Percent Reduction,"[2]; Dose 20%, Vehicle C, topical",50 ± 5%
same,Hair Mass Treated,"[2]; Dose 20%, Vehicle C, topical",1.08 ± 0.16 mg
same,Reduction of Cystine,[4],YES
